What was measured:
Type in all cases: functional
[1] = system: Pseudomonas aeruginosa; experiment: Induction of creD mRNA in ampD::lox, ampDh2::lox and ampDh3::lox gene-deficient Pseudomonas aeruginosa PAO1 at 50 ug/ml by RT-PCR relative to wild type Pseudomonas aeruginosa PAO1 (reference value: 1.3 +/- 0.3 no unit)
[2] = system: Pseudomonas aeruginosa; experiment: Induction of creD mRNA in ampR::lox gene-deficient Pseudomonas aeruginosa PAO1 at 50 ug/ml by RT-PCR relative to wild type Pseudomonas aeruginosa PAO1 (reference value: 1.6 +/- 0.1 no unit)
[3] = system: Pseudomonas aeruginosa; experiment: Induction of ampC mRNA in dacB::lox gene-deficient Pseudomonas aeruginosa PAO1 at 50 ug/ml by RT-PCR relative to wild type Pseudomonas aeruginosa PAO1 (reference value: 51 +/- 16 no unit)
[4] = system: Pseudomonas aeruginosa; experiment: Induction of ampC mRNA in Pseudomonas aeruginosa PAO1 at 50 ug/ml by RT-PCR relative to wild type Pseudomonas aeruginosa PAO1 (reference value: 1 no unit)
[5] = system: Pseudomonas aeruginosa; experiment: Induction of ampC mRNA in ampD::lox, ampDh2::lox,ampDh3::lox and nagZ::lox gene-deficient Pseudomonas aeruginosa PAO1 at 50 ug/ml by RT-PCR relative to wild type Pseudomonas aeruginosa PAO1 (reference value: 57 +/- 31 no unit)
[6] = system: Pseudomonas aeruginosa; experiment: Induction of ampC mRNA in ampD::lox and nagZ::lox gene-deficient Pseudomonas aeruginosa PAO1 at 50 ug/ml by RT-PCR relative to wild type Pseudomonas aeruginosa PAO1 (reference value: 40 +/- 17 no unit) harboring dacB gene
[7] = system: Pseudomonas aeruginosa; experiment: Induction of ampC mRNA in dacB::lox and nagZ::lox gene-deficient Pseudomonas aeruginosa PAO1 at 50 ug/ml by RT-PCR relative to wild type Pseudomonas aeruginosa PAO1 (reference value: 3 +/- 1.9 no unit)
[8] = system: Pseudomonas aeruginosa; experiment: Induction of ampC mRNA in ampR::lox gene-deficient Pseudomonas aeruginosa PAO1 at 50 ug/ml by RT-PCR relative to wild type Pseudomonas aeruginosa PAO1 (reference value: 3.8 +/- 0.4 no unit)
[9] = system: Pseudomonas aeruginosa; experiment: Induction of creD mRNA in ampD::lox and nagZ::lox gene-deficient Pseudomonas aeruginosa PAO1 at 50 ug/ml by RT-PCR relative to wild type Pseudomonas aeruginosa PAO1 (reference value: 2.8 +/- 1.6 no unit)
[10] = system: Pseudomonas aeruginosa; experiment: Induction of creD mRNA in dacB::lox and nagZ::lox gene-deficient Pseudomonas aeruginosa PAO1 at 50 ug/ml by RT-PCR relative to wild type Pseudomonas aeruginosa PAO1 (reference value: 4 +/- 0.8 no unit)
[11] = system: Pseudomonas aeruginosa; experiment: Induction of ampC mRNA in ampD::lox and nagZ::lox gene-deficient Pseudomonas aeruginosa PAO1 at 50 ug/ml by RT-PCR relative to wild type Pseudomonas aeruginosa PAO1 (reference value: 1 +/- 0.4 no unit)
[12] = system: Pseudomonas aeruginosa; experiment: Induction of creD mRNA in ampD::lox gene-deficient Pseudomonas aeruginosa PAO1 at 50 ug/ml by RT-PCR relative to wild type Pseudomonas aeruginosa PAO1 (reference value: 1.1 +/- 0.3 no unit)
[13] = system: Pseudomonas aeruginosa; experiment: Induction of creD mRNA in ampD::lox, ampDh2::lox,ampDh3::lox and nagZ::lox gene-deficient Pseudomonas aeruginosa PAO1 at 50 ug/ml by RT-PCR relative to wild type Pseudomonas aeruginosa PAO1 (reference value: -1.4 +/- 0.1 no unit)
[14] = system: Pseudomonas aeruginosa; experiment: Induction of ampC mRNA in ampD::lox gene-deficient Pseudomonas aeruginosa PAO1 at 50 ug/ml by RT-PCR relative to wild type Pseudomonas aeruginosa PAO1 (reference value: 47 +/-9.5 no unit)
[15] = system: Pseudomonas aeruginosa; experiment: Induction of ampC mRNA in ampD::lox, ampDh2::lox and ampDh3::lox gene-deficient Pseudomonas aeruginosa PAO1 at 50 ug/ml by RT-PCR relative to wild type Pseudomonas aeruginosa PAO1 (reference value: 1020 +/- 88 no unit)
[16] = system: Pseudomonas aeruginosa; experiment: Induction of creD mRNA in nagZ::lox gene-deficient Pseudomonas aeruginosa PAO1 at 50 ug/ml by RT-PCR relative to wild type Pseudomonas aeruginosa PAO1 (reference value: 1.1 +/- 0.3 no unit)
[17] = system: Pseudomonas aeruginosa; experiment: Induction of creD mRNA in ampD::lox gene-deficient Pseudomonas aeruginosa PAO1 at 50 ug/ml by RT-PCR relative to wild type Pseudomonas aeruginosa PAO1 (reference value: 51 +/- 24 no unit) harboring dacB gene
[18] = system: Pseudomonas aeruginosa; experiment: Induction of ampC mRNA in nagZ::lox gene-deficient Pseudomonas aeruginosa PAO1 at 50 ug/ml by RT-PCR relative to wild type Pseudomonas aeruginosa PAO1 (reference value: -2.1 +/- 1.5 no unit)
[19] = system: Pseudomonas aeruginosa; experiment: Induction of creD mRNA in Pseudomonas aeruginosa PAO1 at 50 ug/ml by RT-PCR relative to wild type Pseudomonas aeruginosa PAO1 (reference value: 1 no unit)
[20] = system: Pseudomonas aeruginosa; experiment: Induction of creD mRNA in ampD::lox and nagZ::lox gene-deficient Pseudomonas aeruginosa PAO1 at 50 ug/ml by RT-PCR relative to wild type Pseudomonas aeruginosa PAO1 (reference value: 1.9 +/- 1.3 no unit) harboring dacB gene
[21] = system: Pseudomonas aeruginosa; experiment: Induction of creD mRNA in dacB::lox gene-deficient Pseudomonas aeruginosa PAO1 at 50 ug/ml by RT-PCR relative to wild type Pseudomonas aeruginosa PAO1 (reference value: 83 +/- 7 no unit)
[22] = system: Pseudomonas aeruginosa; experiment: Induction of ampC mRNA in ampD::lox gene-deficient Pseudomonas aeruginosa PAO1 at 50 ug/ml by RT-PCR relative to wild type Pseudomonas aeruginosa PAO1 (reference value: 1770 +/- 414 no unit) harboring dacB gene

Q: Which “fold change (FC)” value [1] does the source give for `CO[C@@]1(NC(=O)Cc2cccs2)C(=O)N2C(C(=O)O)=C(COC(N)=O)CS[C@@H]21` [CEFOXITIN] here?
A: 1.6

Q: What about the “fold change (FC)” value [2] of the same molecule?
A: 189

Q: What about the “fold change (FC)” value [3] of the same molecule?
A: 232

Q: What about the “fold change (FC)” value [4] of the same molecule?
A: 78

Q: And the “fold change (FC)” value [5]?
A: 905

Q: What about the “fold change (FC)” value [6] of the same molecule?
A: 906

Q: What about the “fold change (FC)” value [7] of the same molecule?
A: 661

Q: And the “fold change (FC)” value [8]?
A: 3.3

Q: And the “fold change (FC)” value [9]?
A: 99

Q: And the “fold change (FC)” value [10]?
A: 95

Q: And the “fold change (FC)” value [11]?
A: 483

Q: What about the “fold change (FC)” value [12] of the same molecule?
A: 2.7

Q: What about the “fold change (FC)” value [13] of the same molecule?
A: 1

Q: And the “fold change (FC)” value [14]?
A: 134

Q: What about the “fold change (FC)” value [15] of the same molecule?
A: 1105

Q: And the “fold change (FC)” value [16]?
A: 54

Q: What about the “fold change (FC)” value [17] of the same molecule?
A: 81

Q: And the “fold change (FC)” value [18]?
A: 469

Q: What about the “fold change (FC)” value [19] of the same molecule?
A: 24

Q: What about the “fold change (FC)” value [20] of the same molecule?
A: 418

Q: And the “fold change (FC)” value [21]?
A: 120

Q: And the “fold change (FC)” value [22]?
A: 1950
